Laboratory results: ChEMBL document CHEMBL1139468, “Virtual screening of novel CB2 ligands using a comparative model of the human cannabinoid CB2 receptor” (J Med Chem, 2005)
Activity calls are given as the source filed them. The rule behind the calls is not given here.

How the values were obtained:
[1] = target: Cannabinoid receptor 2 (Homo sapiens, UniProt P34972); assay: Agonist activity at human CB2 receptor transfected in CHO cells by [35]GTPgamma binding assay; assay type: cell-based
[2] = target: Cannabinoid receptor 1 (Rattus norvegicus) (UniProt P20272); assay: Activity at CB1 receptor in rat cerebellar membrane by [35]GTPgamma binding assay; assay type: functional, cell membranes; conditions: Cerebellum
[3] = target: T1, Fatty-acid amide hydrolase 1 (Homo sapiens) (UniProt O00519); assay: Inhibition of FAAH
T1 sequence (whole entry): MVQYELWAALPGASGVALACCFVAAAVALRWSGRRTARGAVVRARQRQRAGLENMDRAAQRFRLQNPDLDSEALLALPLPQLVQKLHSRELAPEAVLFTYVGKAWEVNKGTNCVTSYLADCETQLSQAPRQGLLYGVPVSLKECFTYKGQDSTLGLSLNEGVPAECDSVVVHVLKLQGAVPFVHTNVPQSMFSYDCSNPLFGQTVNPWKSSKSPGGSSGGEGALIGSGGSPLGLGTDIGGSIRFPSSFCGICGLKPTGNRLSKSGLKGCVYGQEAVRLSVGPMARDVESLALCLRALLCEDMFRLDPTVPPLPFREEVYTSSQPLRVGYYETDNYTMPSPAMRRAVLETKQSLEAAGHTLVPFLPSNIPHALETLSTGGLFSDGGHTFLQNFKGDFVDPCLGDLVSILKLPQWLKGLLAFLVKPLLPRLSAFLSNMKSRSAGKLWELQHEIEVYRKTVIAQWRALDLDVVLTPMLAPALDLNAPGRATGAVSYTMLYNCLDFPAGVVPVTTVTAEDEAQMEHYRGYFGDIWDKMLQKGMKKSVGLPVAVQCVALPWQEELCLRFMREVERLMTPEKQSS

[4] = Inhibition of methionine gamma-lyase

Chain of Cannabinoid receptor 2 (P34972 whole entry): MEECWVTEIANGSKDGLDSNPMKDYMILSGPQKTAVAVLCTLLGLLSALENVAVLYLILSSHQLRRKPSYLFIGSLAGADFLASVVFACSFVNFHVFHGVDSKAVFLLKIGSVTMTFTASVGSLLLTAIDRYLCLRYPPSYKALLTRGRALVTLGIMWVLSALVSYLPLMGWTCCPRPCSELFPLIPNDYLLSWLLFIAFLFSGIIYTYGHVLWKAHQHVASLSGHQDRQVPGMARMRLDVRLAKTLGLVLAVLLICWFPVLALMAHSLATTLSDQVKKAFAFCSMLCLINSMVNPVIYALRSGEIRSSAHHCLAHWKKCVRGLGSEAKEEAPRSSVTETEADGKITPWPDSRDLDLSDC
Chain of Cannabinoid receptor 1 (Rattus norvegicus) (P20272 whole entry): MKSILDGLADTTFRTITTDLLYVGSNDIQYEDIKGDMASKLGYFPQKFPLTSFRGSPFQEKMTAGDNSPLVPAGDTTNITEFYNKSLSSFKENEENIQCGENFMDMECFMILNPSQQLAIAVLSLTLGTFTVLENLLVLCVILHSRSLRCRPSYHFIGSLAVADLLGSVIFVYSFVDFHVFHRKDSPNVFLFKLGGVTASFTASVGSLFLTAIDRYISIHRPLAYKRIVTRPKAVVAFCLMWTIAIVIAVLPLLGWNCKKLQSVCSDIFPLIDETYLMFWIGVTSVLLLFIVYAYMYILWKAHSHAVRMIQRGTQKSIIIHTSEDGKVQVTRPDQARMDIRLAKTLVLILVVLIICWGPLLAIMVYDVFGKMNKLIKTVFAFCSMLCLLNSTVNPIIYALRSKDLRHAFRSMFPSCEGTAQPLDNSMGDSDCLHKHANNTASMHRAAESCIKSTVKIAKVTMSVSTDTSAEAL

Row | Compound | Emax [1] | Activity [2] | Activity [3] | Activity [4] | EC50 [1]
1 | CCCCCCC(C)(C)c1cc(O)c2c(c1)OC(C)(C)[C@H]1CC=C(CO)C[C@H]21 | 103% |  |  |  | 
2 | O=C(c1cccc(C(F)(F)F)c1)c1nccc2ccccc12 | 53% | inactive | inactive | inactive | 5.01 µM
